Data taken from the NIST ThermoML archive (doi:10.1016/j.jct.2018.03.019).
± gives the expanded uncertainty stated by the source.

Conditions: Liquid, Ebulliometric method (Recirculating still)

In the case of O=Cc1ccco1 [2-furaldehyde], the “vapor or sublimation pressure” value (435.15 K) is reported as 101.3 ± 0.71 kPa.

With CC(=O)N(C)C [N,N-dimethylethanamide] the “vapor or sublimation pressure” value (439.05 K) was 101.3 ± 0.71 kPa.

For CC(C)N(C)C [N,N-dimethylisopropylamine], the “vapor or sublimation pressure” value (339.13 K) was 101.3 ± 0.71 kPa.

With CC(C)=O [acetone] the “vapor or sublimation pressure” value (329.56 K) was 101.3 ± 0.66 kPa.
